Measurements taken from patent US6515025B2, “Use of ethynyl alanine amino diol compounds to inhibit enzymatic conversion of angiotensinogen to angiotensin I” (Pharmacia Corporation, priority 1991, dated 2003).
“And” between values parts separate entries of the source, which are not always exact repeats. Equal values may be shown once. Read-outs that look alike come from different tables or passages of the source.

Key:
[1] = test system: Plasma Renin Activity (PRA); assay: Marmoset plasma renin activity (PRA) reduction on oral administration; type: in vivo, Marmoset monkeys (Callithrix jacchus); conditions: 0.1 MPK, IG; for inhibition at 0.1 mg/kg: Primates, po
Procedure: The oral activity of renin inhibitor compounds was determined in vivo in Marmoset monkeys using the following procedure. Common Marmoset monkeys (Callithrix jacchus, Charles River, both sexes, body weight 300-400 g) were placed on a modified high-protein low-sodium diet (Purina, St. Louis, Mo.) for 1 week. About 24 hours prior to the administration of test compound, Lasix (5 mg/kg, im) was given. On the day of the test, the animal was anesthetized with isoflurane, body weight recorded, and a baseline blood sample taken. Then, test compound was given intragastrically and blood samples were taken in K-EDTA for plasma renin activity at appropriate time intervals. The PRA was determined by using the protocol outlined below. Results are expressed in terms of PRA at various time intervals both before and after compound administrations (“Pre” means pretreatment levels before compound administrations). Also included is percent inhibition (% INH from pretreatment levels).
I. Angiotensin I Generation
25 ml of the above reaction mixtures, in duplicate, were incubated at 37° C. or 0° C. for 2 hours.
II. Determination of Angiotensin I Concentrations
Angiotensin I (AI) concentrations were determined by radioimmunoassays with a commercial kit from NEN Co.
III. Calculation of Plasma Renin Activity
PRA (ng AI/ml/hr)=(AI at 37°−AI at 0°)/2 hr.

[2] = biological target: T1, renin (Cyno Monkey plasma) (Macaca fascicularis, UniProt Q6DLS0); assay: Renin inhibitor species specificity, cyno monkey plasma renin activity; type: biochemical
T1 construct: the animal plasma is the source of both the renin substrate and the renin enzyme; from tissue; host or cells: pooled cynomolgus monkey plasma
T1 sequence (Q6DLS0 67-406): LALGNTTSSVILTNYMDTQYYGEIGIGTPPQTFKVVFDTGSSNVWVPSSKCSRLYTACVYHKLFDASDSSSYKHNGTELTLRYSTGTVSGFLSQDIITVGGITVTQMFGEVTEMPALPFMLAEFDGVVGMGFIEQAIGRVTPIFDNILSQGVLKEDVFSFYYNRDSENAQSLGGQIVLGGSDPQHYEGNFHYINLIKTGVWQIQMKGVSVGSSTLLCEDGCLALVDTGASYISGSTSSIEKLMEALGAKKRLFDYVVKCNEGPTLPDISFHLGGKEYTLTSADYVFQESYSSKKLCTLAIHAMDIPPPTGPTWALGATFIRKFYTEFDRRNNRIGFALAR
Procedure: (§1) Blood was collected in a 10 ml Becton Dickinson vacutainer tube with 0.1 ml of 15% EDTA (K3) solution (15 mg) from normal animals or high renin animals; i.e., those pre-treated with 5 mg/kg of Lasix® intramuscularly 2 times within a 6 hour interval 24 hours prior to bleeding. The blood was then centrifuged at 2500 RPM for 20 minutes and the plasma from the various species respectively pooled, aliquoted and stored in the freezer. The human plasma source was taking a prescription of an angiotensin converting enzyme inhibitor.
(§2) The plasma renin activity assay is a modification of the human renin inhibition test in that the animal plasma is the source of both the renin substrate and the renin enzyme. In a total volume of 0.1 ml, 90 mM Tris-acetate buffer, pH 7.5, 12 mM sodium EDTA, 0.012 mg/ml neomycin sulfate, 0.9 mg/ml bovine serum albumin, 1.61 mM phenylmethyl sulfonyl fluoride, 4 mM 8-hydroxyquinoline and 0.09 ml of the animal or human plasmas were incubated for 2 hours at 37° C. in a shaking water bath or at 4° C. in an ice bath in the presence or absence of renin inhibitors. The produced angiotensin I was determined by radioimmunoassay (New England Nuclear kit).
(§3) The amount of angiotensin I generated during the 2 hours at 4° C. was usually less than 5% of that activity produced at 37° C.; however, the 4° C. background values were nevertheless subtracted from the 37° C. ones for the 100% activity values. The renin inhibitors were assayed in duplicate using 5 concentrations and the data is expressed as a percent of the 100% total renin activity.

renin (Rat plasma) = biological target: T2, renin (Rat plasma) (Rattus norvegicus, UniProt P08424); assay: Renin inhibitor species specificity, rat plasma renin activity; type: biochemical
T2 construct: the animal plasma is the source of both the renin substrate and the renin enzyme; from tissue; host or cells: pooled rat plasma
T2 sequence (P08424 65-402): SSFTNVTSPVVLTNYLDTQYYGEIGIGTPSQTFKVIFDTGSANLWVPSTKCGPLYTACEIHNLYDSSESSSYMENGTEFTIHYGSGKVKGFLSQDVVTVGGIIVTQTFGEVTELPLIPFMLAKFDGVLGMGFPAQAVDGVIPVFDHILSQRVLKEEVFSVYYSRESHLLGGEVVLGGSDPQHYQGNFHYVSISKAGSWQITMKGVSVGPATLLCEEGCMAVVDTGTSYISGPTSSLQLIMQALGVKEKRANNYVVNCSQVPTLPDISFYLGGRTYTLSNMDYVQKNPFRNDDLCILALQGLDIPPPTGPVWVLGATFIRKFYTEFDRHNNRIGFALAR
Procedure: as §1, §2, §3

[3] = test system: salt-depleted, conscious marmosets; assay: Marmoset blood pressure reduction on intravenous administration; type: in vivo, Marmoset monkeys (Callithrix jacchus); conditions: 100 micrograms/kg intravenously
Procedure: The blood pressure reducing activity of the renin inhibitor compound of Example 1 was determined in vivo in Marmoset monkeys using the following procedure. Common Marmoset monkeys (Callithrix jacchus, Charles River, both sexes, body weight ca. 400 g) were placed on a modified high protein low sodium diet (Purina, St. Louis, Mo.) for 1 week. 24 hours prior to the administration of test compound, Lasix (5 mg/kg, im) was given. On the day of the test, the animal was anesthetized with isoflurane, body weight recorded, and the left femoral artery and vein were catheterized. The animal was allowed to regain consciousness and the title compound of Example 1 (100 micrograms/kg) was administered intravenously in 0.1 mL/kg polyethylene glycol 400 at time zero. Mean arterial blood pressure (MABP) in mmHg was then recorded every ten minutes until 120 minutes.

`C#CC[C@H](NC(=O)C(CC(=O)N(C)CCN(C)C)Cc1ccccc1)C(=O)NC(CC1CCCCC1)[C@@H](O)C(O)CC(C)C` (relative stereo) [Example 1, N1-[1R*-[[[1S,1R*-(cyclohexylmethyl)-2S*,3R*-dihydroxy-5-methylhexyl]amino]carbonyl]-3-butynyl]-N4-[2-(dimethylamino)ethyl]-N4-methyl-2S*-(phenylmethyl)butanediamide] was tested, and the “% INH (from pretreatment PRA)” value ([1]; 60 min, individual monkeys) was 76.6% and 95.6%, the PRA ([1]; 60 min from dosing, individual monkeys) was 2.8 ngAI/ml/hr and 16.4 ngAI/ml/hr and 4 ngAI/ml/hr and the “% INH (from pretreatment PRA)” value ([1]; 120 min, individual monkeys) was 91.1% and 71.5% and 94.2%. The PRA ([1]; 120 min from dosing, individual monkeys) was 4.1 ngAI/ml/hr and 20 ngAI/ml/hr and 5.2 ngAI/ml/hr, the “% INH (from pretreatment PRA)” value ([1]; 240 min, individual monkeys) was 89.8% and 67.8% and 45% and the PRA ([1]; 240 min from dosing, individual monkeys) was 9.2 ngAI/ml/hr and 14.8 ngAI/ml/hr and 38.7 ngAI/ml/hr. The PRA ([1]; Pre (pretreatment level), individual monkeys) was 45.8 ngAI/ml/hr and 70.2 ngAI/ml/hr and 90.1 ngAI/ml/hr, the inhibition at 0.1 mg/kg ([1]; 60 min, individual monkeys, read-out: % INH (from pretreatment PRA)) was 93.8% and the inhibition at 0.1 mg/kg ([1]; 1 h, 60 min, mean of monkeys A-C, read-out: MEAN % INH) was 88.7 ± 6%. For the same compound, the inhibition at 0.1 mg/kg ([1]; 2 h, 120 min, mean of monkeys A-C, read-out: MEAN % INH) was 85.6 ± 7%, the inhibition at 0.1 mg/kg ([1]; 4 h, 240 min, mean of monkeys A-C, read-out: MEAN % INH) was 67.5 ± 13% and the “% of Total Renin Activity” value ([2]; 1 nM) was 81%. For the same compound, the “% of Total Renin Activity” value ([2]; 4 nM) was 51%, the “% of Total Renin Activity” value ([2]; 16 nM) was 18% and the “% of Total Renin Activity” value (renin (Rat plasma); 100 nM) was 93%. The “% of Total Renin Activity” value (renin (Rat plasma); 400 nM) was 76%, the “% of Total Renin Activity (range only)” value (renin (Rat plasma); 1600 nM) was “(23-34)” and the MABP ([3]; 10 min (n = 3)) was 106 mmHg. For the same compound, the MABP ([3]; 20 min (n = 3)) was 97 mmHg, the MABP ([3]; 30 min (n = 3)) was 93 mmHg and the MABP ([3]; 40 min (n = 3)) was 92 mmHg. It also gave an MABP ([3]; 50 min (n = 3)) of 90 mmHg, an MABP ([3]; 60 min (n = 3)) of 89 mmHg and an MABP ([3]; 70 min (n = 3)) of 87 mmHg. It also gave an MABP ([3]; 80 min (n = 3)) of 88 mmHg, an MABP ([3]; 90 min (n = 3)) of 89 mmHg and an MABP ([3]; 100 min (n = 3)) of 91 mmHg. For the same compound, the MABP ([3]; 110 min (n = 3)) was 93 mmHg, the MABP ([3]; 120 min (n = 3)) was 94 mmHg and the MABP ([3]; time 0 min (n = 3)) was 118 mmHg. For the same compound, the “effect on blood pressure (in words)” value ([3]; salt-depleted, conscious marmosets) was “lowers blood pressure”.
